This is an account of results in US4400394A, “Benzylidene derivatives” (priority 1975, dated 1983).

A short description of data set [1]: Acute toxicity in mice (LD 50, intraperitoneal). The note with it: mouse, in vivo, ip, CD1 mice, deaths recorded 48 hours after administration, determined graphically. On the procedure: I. Acute toxicity in mice
The compounds of the invention and the reference substances were administered intraperitoneally to CD1 mice. The 50% lethal dose (LD 50) was determined graphically. The number of dead animals 48 hours after intraperitoneal administration was recorded.

The subject of data set [2] is convulsions induced by bicuculline in mice. Put plainly: Antagonism to convulsions induced by bicuculline in mice (anti-bicuculline activity). It is filed as in vivo. The note with it: Mus musculus, ip, intraperitoneal, dose which protects 50% of the animals against the effect of bicuculline, read-out: Anti-bicuculline activity, AD 50 (intraperitoneal administration). On the procedure: II. GABA-animetic activity of the compounds (I)
The experimental method of Curtis, D. R., et al., Brain Res., 1971, 33, 57 and Perez de la Mora, N., Biochem. Pharmacol., 1973, 22, 2,635, was used.
The 50% active doses (AD 50), namely the doses which protect 50% of the animals against the effect of bicuculline, were evaluated for the substances studied.

For data set [3] the following is noted: oral or parenteral administration; cited from earlier work.
In data set [4] the test system is epilepsy. The note with it: cited from earlier work.

One may read the LD50 as the dose expected to kill half of the subjects tested. A high value points to lower toxicity.

As to `CCCCN(CCCC)C(=O)CCCN=C(c1ccccc1)c1cc(F)ccc1O` [76,023], the median lethal dose (LD50) at 48 h in data set [1] came out at 1700 mg/kg. Also, the ED50 in data set [2] was 300 mg/kg.
`O=C(O)CCCN=C(c1ccccc1)c1cc(F)ccc1O` [75,010, Sodium 4-N-(α-phenyl-5-fluoro-2-hydroxy-benzylidenyl)-amino-butyrate] yielded an LD50 at 48 h in data set [1] of 600 mg/kg. Besides, the ED50 in data set [2] was determined as 125 mg/kg.
On to `O=C(O)CCCN=C(c1ccc(F)cc1)c1cc(F)ccc1O` [75,045, Sodium 4-N-[α-(4-fluorophenyl)-5-fluoro-2-hydroxy-benzylidenyl]-amino-butyrate], for which the LD50 at 48 h in data set [1] was 650 mg/kg. Further, the ED50 in data set [2] was found to be 125 mg/kg.
In the case of `CN(C)C(=O)CCCN=C(c1ccccc1)c1cc(F)ccc1O` [76,022], the LD50 at 48 h in data set [1] came to 1400 mg/kg. Moreover, the ED50 in data set [2] was 350 mg/kg.
In turn, `CCCC(CCN=C(c1ccccc1)c1cc(F)ccc1O)C(=O)O` (stereo not drawn) [76,085] gave an LD50 at 48 h in data set [1] of 340 mg/kg. The ED50 in data set [2] came to 170 mg/kg.
In data set [1], `NC(=O)CCCN=C(c1ccc(F)cc1)c1cc(F)ccc1O` [75,166] yielded an LD50 at 48 h greater than 2000 mg/kg. In addition, in data set [2], the ED50 is 180 mg/kg.
In the case of `CCOC(=O)CCCNC(=O)CCCN=C(c1ccccc1)c1cc(F)ccc1O` [75,168], the LD50 at 48 h in data set [1] was 975 mg/kg. Also, the ED50 in data set [2] is 500 mg/kg.
`NCCCC(=O)O` [GABA, γ-Aminobutyric acid]: in data set [1], the LD50 at 48 h is greater than 4000 mg/kg. Moreover, in data set [3], the “crossing of the blood-brain barrier (in words)” value is reported as “does not easily cross the blood-brain barrier”. Also, in data set [4] (administration of GABA), the “side-effects (in words)” value was “substantial sideeffects (hypotension, bradycardia, and sedation)”. Moreover, the “use in epilepsy (in words)” value in data set [4] (some cases of epilepsy, very large quantities needed) is reported as “used with success in some cases of epilepsy”. Moreover, the ED50 in data set [2] is greater than 4000 mg/kg.
In data set [1], `NC(=O)CN=C(c1ccccc1)c1ccccc1O` [75,037] yielded an LD50 at 48 h of 1350 mg/kg. Also, the ED50 in data set [2] came out at 20 mg/kg.
Turning to `COc1ccc(C(=NCCCC(=O)O)c2ccc(Cl)cc2)c(O)c1` [75,118], the LD50 at 48 h in data set [1] stood at 525 mg/kg. In addition, the ED50 in data set [2] was 225 mg/kg.
Turning to `NC(=O)CCCN=C(c1cccc(Cl)c1)c1cc(F)ccc1O` [76,091], in data set [1], the LD50 at 48 h amounted to 600 mg/kg. The ED50 in data set [2] was 300 mg/kg.
On to `Cc1ccc(O)c(C(=NCCCC(=O)O)c2ccccc2Cl)c1` [75,136], for which the LD50 at 48 h in data set [1] is 350 mg/kg. Further, the ED50 in data set [2] stood at 110 mg/kg.
As for `O=C(O)CCCN=C(c1cc(F)ccc1O)c1ccccc1Cl` [75,027], the LD50 at 48 h in data set [1] was 375 mg/kg. Also, the ED50 in data set [2] was 125 mg/kg.
In the case of `O=C(O)CCCCCCCCCCN=C(c1ccccc1)c1cc(F)ccc1O` [75,054], the LD50 at 48 h in data set [1] was determined as 300 mg/kg. Further, in data set [2], the ED50 was 130 mg/kg.
On to `O=C(O)CCCN=C(c1ccccc1O)c1ccccc1F` [75,046], for which the LD50 at 48 h in data set [1] was 675 mg/kg. In addition, in data set [2], the ED50 is 225 mg/kg.
For `O=C(O)CCCCN=C(c1ccccc1)c1ccccc1O` [75,006], the LD50 at 48 h in data set [1] was determined as 700 mg/kg. The ED50 in data set [2] stood at 250 mg/kg.
Turning to `O=C(CCCN=C(c1ccccc1)c1cc(F)ccc1O)NC1CC1` [76,010], the LD50 at 48 h in data set [1] turned out to be 1250 mg/kg. Also, the ED50 in data set [2] stood at 250 mg/kg.
In data set [1], `O=C(O)CCCCN=C(c1ccccc1)c1cc(F)ccc1O` [SL 75,106] came in with an LD50 at 48 h of 600 mg/kg. Further, the ED50 in data set [2] was 120 mg/kg.
In data set [1], `O=C(O)CCCN=C(c1ccccc1)c1ccccc1O` [SL 74,227] came in with an LD50 at 48 h of 975 mg/kg. Also, in data set [2], the ED50 is 500 mg/kg.
In turn, `Cc1ccc(O)c(C(=NCCCC(=O)O)c2ccccc2F)c1` [75,053] displayed an LD50 at 48 h in data set [1] of 600 mg/kg. In addition, the ED50 in data set [2] is 125 mg/kg.
In turn, `NC(=O)CCCN=C(c1cc(F)ccc1O)c1ccccc1Cl` [76,086] registered an LD50 at 48 h in data set [1] of 235 mg/kg. For the same molecule, the ED50 in data set [2] is 50 mg/kg.
The molecule `O=C(CCCN=C(c1ccccc1)c1cc(F)ccc1O)NC1CCC1` [76,030] showed an LD50 at 48 h in data set [1] greater than 2000 mg/kg. Besides, the ED50 in data set [2] was 200 mg/kg.
The corresponding values for `O=C(O)CCCCCCCCCCN=C(c1ccccc1)c1ccccc1O` [75,075, Sodium 11-N-(α-phenyl-2-hydroxy-benzylidenyl)-amino-undecamoate] are 210 mg/kg and 100 mg/kg.
The corresponding values for `NC(=O)CCCN=C(c1ccc(Cl)cc1)c1cc(F)ccc1O` [76,002, 4-[(4-Chlorophenyl)-5-fluoro-2-hydroxy-benzylidenyl]-amino-butyramide] are 900 mg/kg and 65 mg/kg.
Regarding `O=C(CCCN=C(c1ccccc1)c1cc(F)ccc1O)NCc1ccccc1` [76,013], the LD50 at 48 h in data set [1] was greater than 2000 mg/kg. In addition, the ED50 in data set [2] is 200 mg/kg.
Consider `O=C(O)CCCN=C(c1ccc(Cl)cc1)c1cc(F)ccc1O` [75,102], for which the LD50 at 48 h in data set [1] was found to be 500 mg/kg. In addition, the ED50 in data set [2] turned out to be 65 mg/kg.
Take `O=C(O)CCN=C(c1ccccc1)c1ccccc1O` [75,019]: in data set [1], the LD50 at 48 h was found to be 830 mg/kg. The ED50 in data set [2] came out at 425 mg/kg.
The corresponding values for `O=C(O)CCCN=C(c1cccc(F)c1)c1cc(F)ccc1O` [75,044, Sodium 4-N-[α-(3-fluorophenyl)-5-fluoro-2-hydroxy-benzylidenyl]-amino-butyrate] are 850 mg/kg and 250 mg/kg.
In data set [1], `O=C(O)CCCN=C(c1ccccc1O)c1ccccc1Cl` [75,078] returned an LD50 at 48 h of 350 mg/kg. The ED50 in data set [2] was determined as 110 mg/kg.
For `O=C(O)CCCN=C(c1cc(F)ccc1O)c1ccccc1F` [75,017], in data set [1], the LD50 at 48 h amounted to 525 mg/kg. Also, the ED50 in data set [2] turned out to be 175 mg/kg.
Molecule `O=C(O)CCCCCCCN=C(c1ccccc1)c1ccccc1O` [75,100] displayed an LD50 at 48 h in data set [1] of 600 mg/kg. For the same molecule, in data set [2], the ED50 was found to be 300 mg/kg.
Molecule `O=C(CCCN=C(c1ccccc1)c1cc(F)ccc1O)NC1CCCC1` [76,011] registered an LD50 at 48 h in data set [1] greater than 2000 mg/kg. In addition, in data set [2], the ED50 worked out at 365 mg/kg.
In the case of `NC(=O)CN=C(c1ccccc1)c1cc(F)ccc1O` [75,083], the LD50 at 48 h in data set [1] came to 650 mg/kg. In addition, in data set [2], the ED50 was 175 mg/kg.
In data set [1], `NC(=O)CN1CCCC1=O` [PIRACETAM, reference compound] showed an LD50 at 48 h greater than 4000 mg/kg. The ED50 in data set [2] turned out to be 500 mg/kg.
Molecule `Cc1ccccc1C(=NCCCC(=O)O)c1cc(F)ccc1O` [75,029] yielded an LD50 at 48 h in data set [1] of 475 mg/kg. Moreover, the ED50 in data set [2] turned out to be 250 mg/kg.
`NC(=O)CCCN=C(c1ccccc1)c1cc(F)ccc1O` [75,167] had an LD50 at 48 h in data set [1] greater than 2000 mg/kg. For the same molecule, in data set [2], the ED50 came to 100 mg/kg.
`O=C(O)CCCCCN=C(c1ccccc1)c1cc(F)ccc1O` [75,059] had an LD50 at 48 h in data set [1] of 800 mg/kg. Moreover, the ED50 in data set [2] worked out at 200 mg/kg.
The molecule `O=C(O)CCCN=C(c1ccccc1)c1cc(Cl)ccc1O` [75,005] showed an LD50 at 48 h in data set [1] of 350 mg/kg. Moreover, in data set [2], the ED50 stood at 120 mg/kg.
Take `COc1ccc(C(=NCCCC(=O)O)c2ccccc2)c(O)c1` [75,107]: the LD50 at 48 h in data set [1] worked out at 950 mg/kg. Further, in data set [2], the ED50 is 450 mg/kg.
With `O=C(O)CCCCCN=C(c1ccccc1)c1ccccc1O` [75,074], the LD50 at 48 h in data set [1] was 750 mg/kg. Further, the ED50 in data set [2] stood at 300 mg/kg.
`O=C(CCCN=C(c1ccccc1)c1cc(F)ccc1O)Nc1ccccc1` [76,012]: the LD50 at 48 h in data set [1] was greater than 2000 mg/kg. In addition, in data set [2], the ED50 turned out to be 500 mg/kg.
The corresponding values for `CC(C)NC(=O)CCCN=C(c1ccccc1)c1cc(F)ccc1O` [76,031] are greater than 2000 mg/kg and 500 mg/kg.
